Source: patent publication US12180187B2, “1-phenyl-5-azinylpyrazolyl-3-oxyalkyl acids and their use for controlling unwanted plant growth” (BAYER AKTIENGESELLSCHAFT, priority 2019, dated 2024)

Legend:
VERPE = experiment: Pre-emergence action against VERPE, 1280 g/ha; format: in vivo, Veronica persica; details: scored visually after about 3 weeks vs untreated controls (100% = plants have died)
Summary of the method: (§1)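 Sandy loam pots, seeds covered with soil; aqueous WP/EC spray on covering soil, 0.5% additive, 600 L/ha. Greenhouse growth, good conditions. Readout: visual % activity at ~3 weeks (0% = like control, 100% = dead).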

AVEFA = experiment: Post-emergence action at 320 g/ha against AVEFA; format: in vivo; details: visual rating about 3 weeks after treatment vs untreated controls
Summary of the method: (§2)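 Visual % activity vs untreated controls (0% = like control, 100% = plants dead), scored ~3 wk after treatment. Plants were grown in sandy loam in a greenhouse and sprayed on green parts at the one-leaf stage (2–3 wk post-sowing). Spray: WP or EC in water, 0.5% additive, 600 l/ha.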

DIGSA [1] = experiment: Pre-emergence action against DIGSA, 1280 g/ha; format: in vivo, Digitaria sanguinalis; details: visual scoring after about 3 weeks vs untreated controls, 100% = plants have died, 0% = like control plants
Summary of the method: as §1

PHBPU [2] = experiment: Post-emergence action at 320 g/ha against PHBPU; format: in vivo; details: visual rating about 3 weeks after treatment vs untreated controls
Summary of the method: as §2

ABUTH = experiment: Post-emergence action at 320 g/ha against ABUTH; format: in vivo, Abutilon theophrasti; details: visual rating about 3 weeks after treatment vs untreated controls
From the text: Accordingly, the compounds of the invention have good herbicidal action against a broad spectrum of weed grasses and broad-leaved weeds and are therefore suitable for controlling unwanted vegetation by the post-emergence method. • b) Seeds of monocotyledonous and dicotyledonous weeds and crop plants are placed in sandy loam in plastic or organic planting pots, covered with soil and cultivated in a greenhouse under controlled growth conditions. 2 to 3 weeks after sowing, the test plants are treated at the one-leaf stage. The compounds of the invention, formulated in the form of wettable powders (WP) or as emulsion concentrates (EC), are then sprayed onto the green parts of the plants as aqueous suspension or emulsion with addition of 0.5% additive at a water application rate of 600 l/ha (converted). After the test plants have been kept in the greenhouse under optimum growth conditions for about 3 weeks, the activity of the preparations is rated visually in comparison to untreated controls. For example, 100% activity=the plants have died, 0% activity=like control plants. Tables 39 to 49 below show the effects of selected compounds of the general formula (I) according to Tables 1 and 2 on various harmful plants and at an application rate corresponding to 320 g/ha, which were obtained by the experimental procedure mentioned above.

LOLRI = experiment: Pre-emergence action against LOLRI, 1280 g/ha; format: in vivo, Lolium rigidum; details: visual scoring after about 3 weeks vs untreated controls, 100% = plants have died, 0% = like control plants
Summary of the method: as §1

VIOTR = experiment: Post-emergence action at 320 g/ha against VIOTR; format: in vivo, Viola tricolor; details: visual rating about 3 weeks after treatment vs untreated controls
Summary of the method: as §2

SETVI = experiment: Post-emergence action against SETVI, 1.28 kg/ha; format: in vivo, Setaria viridis; details: dosage 1280 g/ha, visual rating about 3 weeks after treatment vs untreated controls
Summary of the method: (§3)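 Weeds grown in sandy loam in a greenhouse were sprayed at the one-leaf stage, 2–3 weeks after sowing, with WP or EC formulations in water containing 0.5% additive at 600 L/ha. About 3 weeks later, damage was scored visually versus untreated controls (0% = like control, 100% = dead).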

ALOMY = experiment: Pre-emergence action against ALOMY, 1280 g/ha; format: in vivo, Alopecurus myosuroides; details: visual scoring after about 3 weeks vs untreated controls, 100% = plants have died, 0% = like control plants
Summary of the method: as §1

STEME = experiment: Post-emergence action against STEME, 1.28 kg/ha; format: in vivo, Stellaria media; details: dosage 1280 g/ha, visual rating about 3 weeks after treatment vs untreated controls (100% = plants died)
Summary of the method: as §3

KCHSC = experiment: Post-emergence action against KCHSC, 1.28 kg/ha; format: in vivo, Bassia scoparia; details: dosage 1280 g/ha, visual rating about 3 weeks after treatment vs untreated controls (100% = plants died)
Summary of the method: as §3

DIGSA [3] = experiment: Post-emergence action at 320 g/ha against DIGSA; format: in vivo, Digitaria sanguinalis; details: dosage 320 g/ha, visual rating about 3 weeks after treatment vs untreated controls (100% = plants died)
Summary of the method: as §2

AMARE = experiment: Post-emergence action against AMARE, 1.28 kg/ha; format: in vivo, Amaranthus retroflexus; details: dosage 1280 g/ha, visual rating about 3 weeks after treatment vs untreated controls (100% = plants died)
Summary of the method: as §3

ECHCG = experiment: Post-emergence action at 320 g/ha against ECHCG; format: in vivo, Echinochloa crus-galli; details: dosage 320 g/ha, visual rating about 3 weeks after treatment vs untreated controls (100% = plants died)
Summary of the method: as §2

PHBPU [4] = experiment: Pre-emergence action at 320 g/ha against PHBPU; format: in vivo; details: visual scoring after about 3 weeks vs untreated controls
Summary of the method: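 Application: aqueous WP or EC with 0.5% additive on soil covering seeds, 600 l/ha. Read-out: visual percent damage after ~3 weeks in greenhouse, untreated pots as reference.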

| SMILES | Pre-emergence action against VERPE (VERPE) | Post-emergence action against AVEFA in % (AVEFA) | Pre-emergence action against DIGSA (DIGSA [1]) | Post-emergence action against PHBPU in % (PHBPU [2]) | Post-emergence action against ABUTH in % (ABUTH) | Pre-emergence action against LOLRI (LOLRI) | Post-emergence action against VIOTR in % (VIOTR) | Post-emergence action against SETVI (SETVI) | Pre-emergence action against ALOMY (ALOMY) | Post-emergence action against STEME (STEME) | Post-emergence action against KCHSC (KCHSC) | Post-emergence action at 320 g/ha against DIGSA in % (DIGSA [3]) | Post-emergence action against AMARE (AMARE) | Post-emergence action at 320 g/ha against ECHCG in % (ECHCG) | Pre-emergence action against PHBPU in % (PHBPU [4]) |
| --- | --- | --- | --- | --- | --- | --- | --- | --- | --- | --- | --- | --- | --- | --- | --- |
| COC(=O)COc1nn(-c2ccccc2)c(-c2ccc(F)nc2)c1Br [VII-018] | 100% | 80% | 100% | 90% | 80% | 100% | 90% | 100% | 100% | 100% | 90% | – | – | – | – |
| COC(=O)C(C)Oc1nn(-c2ccccc2)c(-c2ccc(F)nc2)c1Br (stereo not drawn) [VII-026] | 100% | 80% | 100% | – | 80% | 90% | 90% | – | 100% | 100% | 90% | 90% | 90% | – | – |
| COC(=O)COc1nn(-c2ccccc2F)c(-c2ccc(F)nc2)c1F [VII-040] | 100% | 90% | 100% | 90% | 90% | 100% | 90% | 90% | 100% | 100% | 90% | – | 90% | 80% | – |
| COC(=O)COc1nn(-c2cc(F)ccc2F)c(-c2ccc(F)nc2)c1Br [VII-089] | 100% | 80% | 100% | 80% | – | 100% | – | – | 100% | 100% | – | 90% | 90% | – | 80% |
| COC(=O)CCOC(=O)COc1nn(-c2ccccc2F)c(-c2ccc(F)nc2)c1Br [VII-111] | 100% | 90% | 100% | 80% | 80% | 100% | 90% | 100% | 100% | 100% | – | 90% | 90% | 90% | – |
| COC(=O)[C@@H](C)Oc1nn(-c2ccccc2F)c(-c2ccnc(F)c2)c1Br [VIII-006] | 100% | 80% | 100% | – | – | 100% | – | 90% | 100% | 100% | 90% | – | 100% | 90% | 90% |
